Molecules are shown by their SMILES. pEC50: −log10 of the molar value.

For this experiment, the system named is whole cells (NMuLi, C2C12, and L6 cells, isolated cardiomyocytes, human primary fibroblasts). Put plainly: Oxygen consumption rate (OCR) in whole cells, Seahorse XF-24 Flux Analyzer. Format: cell-based. The note with it: increase in OCR; binned EC50 values. On the procedure:
Biological activities of the compounds synthesized is determined by determining increase in oxygen consumption rate (OCR).
Oxygen consumption rate (OCR) in whole cells is measured in general accordance with the method of Kenwood B M et al. (Mol. Met. (2014) 3:114-123).
OCR is measured using a Seahorse XF-24 Flux Analyzer (Seahorse Biosciences, North Billerica, MA). NMuLi, C2C12, and L6 cells are seeded in a Seahorse 24-well tissue culture plate at a density of 3.5×10^4 cells/well, isolated cardiomyocytes at a density of 4×10^4 cells/well, and human primary fibroblasts at a density of 1.1×10^4 cells/well. The cells are then allowed to adhere for 24 h. Prior to the assay, the media is changed to unbuffered DMEM containing pyruvate and glutamine (Gibco #12800-017, pH=7.4 at 37° C.) and the cells are equilibrated for 30 mins at 37°° C. Compounds are injected during the assay and OCR is measured using 2 min measurement periods.
2-3 wells are used per condition and averaged over three plates (n=6-9). Statistical significance is determined by two-way ANOVA with Bonferroni's posttest.
Activities are reported as binned EC50 values: A=5 μM or less; B=>5 to 20 μM; C=over 20 μM; NA=not active.
Regarding `Oc1nc2nonc2nc1Nc1ccc(-c2cccc(OC(F)(F)F)c2)cc1` [1-111, 6-((3′-(trifluoromethoxy)-[1,1′-biphenyl]-4-yl)amino)-[1,2,5]oxadiazolo[3,4-b]pyrazin-5-ol], the negative logarithm of the EC50 (pEC50) (commonly the negative decadic logarithm of the EC50, by convention in mol/L) was 4.70 to 5.30.
In turn, `Oc1nc2nonc2nc1Nc1ccc(OCc2ccccc2)cc1` [1-86, 6-((4-(benzyloxy)phenyl)amino)-[1,2,5]oxadiazolo[3,4-b]pyrazin-5-ol] had a negative-log EC50 (pEC50) of at least 5.30.
The value for `CCCCOc1ccc(Nc2nc3nonc3nc2O)cc1` [1-95, 6-((4-butoxyphenyl)amino)-[1,2,5]oxadiazolo[3,4-b]pyrazin-5-ol] was at least 5.30; that for `CCCCCCc1ccc(Nc2nc3nonc3nc2O)c(OC(F)(F)F)c1` [1-70, 6-((4-hexyl-2-(trifluoromethoxy)phenyl)amino)-[1,2,5]oxadiazolo[3,4-b]pyrazin-5-ol] was 4.70 to 5.30.
For `Oc1nc2nonc2nc1Nc1cccc(S(F)(F)(F)(F)F)c1` [1-31, 6-((3-(Pentafluoro-16-sulfaneyl)phenyl)amino)-[1,2,5]oxadiazolo[3,4-b]pyrazin-5-ol] the value was at least 5.30; for `CCCC#Cc1ccc(Nc2nc3nonc3nc2O)c(OC(F)(F)F)c1` [1-64, 6-((4-(Pent-1-yn-1-yl)-2-(trifluoromethoxy)phenyl)amino)-[1,2,5]oxadiazolo[3,4-b]pyrazin-5-ol], at least 5.30.
For `COc1cccc(-c2ccc(Nc3nc4nonc4nc3O)cc2)c1` [1-137, 6-((3′-methoxy-[1,1′-biphenyl]-4-yl)amino)-[1,2,5]oxadiazolo[3,4-b]pyrazin-5-ol] the value was at least 5.30; for `Oc1nc2nonc2nc1Nc1ccc(-c2ccc(F)c(C(F)F)c2)cc1` [1-109, 6-((3′-(difluoromethyl)-4′-fluoro-[1,1′-biphenyl]-4-yl)amino)-[1,2.5]oxadiazolo[3.4-b]pyrazin-5-ol], at least 5.30; for `Oc1nc2nonc2nc1Nc1ccc2c(c1)OCO2` [1-87, 6-(benzo[d][1,3]dioxol-5-ylamino)-[1,2,5]oxadiazolo[3,4-b]pyrazin-5-ol], under 4.70.
Molecule `Oc1nc2nonc2nc1Nc1cccc(-c2ccccc2)c1` [1-104, 6-([1,1′-biphenyl]-3-ylamino)-[1,2,5]oxadiazolo[3,4-b]pyrazin-5-ol] had a pEC50 of at least 5.30.
`O=C1c2ccccc2-c2ccc(Nc3nc4nonc4nc3O)cc21` [1-127, 2-((6-hydroxy-[1,2,5]oxadiazolo[3,4-b]pyrazin-5-yl)amino)-9H-fluoren-9-one]: the pEC50 was under 4.70.
`CC1(C)c2ccccc2-c2ccc(Nc3nc4nonc4nc3O)cc21` [1-118, 6-((9,9-dimethyl-9H-fluoren-2-yl)amino)-[1,2,5]oxadiazolo[3,4-b]pyrazin-5-ol] gave a pEC50 of at least 5.30.
For `CCCCC#Cc1ccc(Nc2nc3nonc3nc2O)c(OC(F)(F)F)c1` [1-65, 6-((4-(Hex-1-yn-1-yl)-2-(trifluoromethoxy)phenyl)amino)-[1,2,5]oxadiazolo[3,4-b]pyrazin-5-ol] the value was 4.70 to 5.30; for `O=C(COc1cccc(Nc2nc3nonc3nc2O)c1)c1ccc(OC(F)(F)F)cc1` [1-98, 2-(3-((6-hydroxy-[1,2,5]oxadiazolo[3,4-b]pyrazin-5-yl)amino)phenoxy)-1-(4-(trifluoromethoxy)phenyl)ethan-1-one], 4.70 to 5.30; for `Oc1nc2nonc2nc1NCc1ccc(Br)cc1` [1-77, 6-((4-bromobenzyl)amino)-[1,2,5]oxadiazolo[3,4-b]pyrazin-5-ol], under 4.70.
`O=C(Nc1nc2nonc2nc1OCc1ccccc1)c1ccc(C(F)(F)F)cc1` [1-196, N-(6-(benzyloxy)-[1,2,5]oxadiazolo[3,4-b]pyrazin-5-yl)-4-(trifluoromethyl)benzamide] had a pEC50 of 4.70 to 5.30.
For the molecule `Oc1nc2nonc2nc1Nc1ccc(F)cc1` [1-5, 6-((4-Fluorophenyl)amino)-[1,2,5]oxadiazolo[3,4-b]pyrazin-5-ol], the pEC50 is under 4.70.
For `Oc1nc2nonc2nc1NC12CC3CC(CC(C3)C1)C2` [1-81, 6-(((3S,5S,7S)-adamantan-1-yl)amino)-[1,2,5]oxadiazolo[3,4-b]pyrazin-5-ol] the value was 4.70 to 5.30; for `Oc1nc2nonc2nc1Nc1cccc(-c2ccc(OC(F)(F)F)cc2)c1` [1-136, 6-((4′-(trifluoromethoxy)-[1,1′-biphenyl]-3-yl)amino)-[1,2,5]oxadiazolo[3,4-b]pyrazin-5-ol], at least 5.30.
For `Oc1nc2nonc2nc1Nc1ccc(OCC(F)(F)F)c(C(F)(F)F)c1` [1-91, 6-((4-(2,2,2-Trifluoroethoxy)-3-(trifluoromethyl)phenyl)amino)-[1,2,5]oxadiazolo[3,4-b]pyrazin-5-ol], the pEC50 is 4.70 to 5.30.
The value for `Oc1nc2nonc2nc1Nc1ccc(-c2ccc3c(c2)OCO3)cc1` [1-122, 6-((4-(benzo[d][1,3]dioxol-5-yl)phenyl)amino)-[1,2,5]oxadiazolo[3,4-b]pyrazin-5-ol] was under 4.70; that for `Oc1nc2nonc2nc1Nc1ccc(F)c(Br)c1` [1-33, 6-((3-Bromo-4-fluorophenyl)amino)-[1,2,5]oxadiazolo[3,4-b]pyrazin-5-ol] was 4.70 to 5.30.
The value for `CC(C)(C)c1cccc(Nc2nc3nonc3nc2O)c1` [1-53, 6-((3-(tert-Butyl)phenyl)amino)-[1,2,5]oxadiazolo[3,4-b]pyrazin-5-ol] was at least 5.30; that for `Oc1nc2nonc2cc1Nc1cccc(C(F)(F)F)c1` [1-234, 6-((3-(trifluoromethyl)phenyl)amino)-[1,2,5]oxadiazolo[3,4-b]pyridin-5-ol] was under 4.70.
The value for `Oc1nc2nonc2nc1Nc1cccc(I)c1` [1-18, 6-((3-Iodophenyl)amino)-[1,2,5]oxadiazolo[3,4-b]pyrazin-5-ol] was 4.70 to 5.30.
Consider `Oc1nc2nonc2nc1Nc1ccc(OCC(F)(F)F)cc1` [1-88, 6-((4-(2,2,2-Trifluoroethoxy)phenyl)amino)-[1,2,5]oxadiazolo[3,4-b]pyrazin-5-ol], for which the pEC50 was under 4.70.
The value for `Oc1nc2nonc2cc1Nc1ccc(C(F)(F)F)cc1` [1-242, 6-((4-(trifluoromethyl)phenyl)amino)-[1,2,5]oxadiazolo[3,4-b]pyridin-5-ol] was under 4.70; that for `CCCCCc1ccc(Nc2nc3nonc3nc2O)c(OC(F)(F)F)c1` [1-69, 6-((4-Pentyl-2-(trifluoromethoxy)phenyl)amino)-[1,2,5]oxadiazolo[3,4-b]pyrazin-5-ol] was at least 5.30; that for `Oc1nc2nonc2nc1Nc1ccc(-c2ccc(F)cc2)c(F)c1` [1-125, 6-((2,4′-difluoro-[1,1′-biphenyl]-4-yl)amino)-[1,2,5]oxadiazolo[3,4-b]pyrazin-5-ol] was at least 5.30.
As for `COc1cc(OC(F)(F)F)ccc1Nc1nc2nonc2nc1O` [1-22, 6-((2-Methoxy-4-(trifluoromethoxy)phenyl)amino)-[1,2,5]oxadiazolo[3,4-b]pyrazin-5-ol], the pEC50 was at least 5.30.
The value for `Oc1nc2nonc2nc1Nc1cc(C(F)(F)F)ccc1F` [1-17, 6-((2-Fluoro-5-(trifluoromethyl)phenyl)amino)-[1,2,5]oxadiazolo[3,4-b]pyrazin-5-ol] was 4.70 to 5.30; that for `Oc1nc2nonc2nc1Nc1ccc(OCCCC(F)(F)F)c(C(F)(F)F)c1` [1-100, 6-((4-(4,4,4-trifluorobutoxy)-3-(trifluoromethyl)phenyl)amino)-[1,2,5]oxadiazolo[3,4-b]pyrazin-5-ol] was at least 5.30; that for `Oc1nc2nonc2nc1Nc1ccc(OC(F)(F)Cl)cc1` [1-29, 6-((4-(Chlorodifluoromethoxy)phenyl)amino)-[1,2,5]oxadiazolo[3,4-b]pyrazin-5-ol] was at least 5.30.
The molecule `Oc1nc2nonc2nc1Nc1ccc(OCC(F)(F)F)c(F)c1` [1-90, 6-((3-Fluoro-4-(2,2,2-trifluoroethoxy)phenyl)amino)-[1,2,5]oxadiazolo[3,4-b]pyrazin-5-ol] showed a pEC50 of 4.70 to 5.30.
Regarding `Oc1nc2nonc2nc1NCc1ccc(OC(F)(F)F)cc1` [1-80, 6-((4-(trifluoromethoxy)benzyl)amino)-[1,2,5]oxadiazolo[3,4-b]pyrazin-5-ol], the pEC50 was under 4.70.
`Oc1nc2nonc2nc1Nc1ccc(-c2ccc(C(F)(F)F)nc2)cc1` [1-107, 6-((4-(6-(trifluoromethyl)pyridin-3-yl)phenyl)amino)-[1,2,5]oxadiazolo[3,4-b]pyrazin-5-ol] had a pEC50 of 4.70 to 5.30.
For `Oc1nc2nonc2nc1Nc1ccc(OC(F)(F)F)c(Br)c1` [1-39, 6-((3-Bromo-4-(trifluoromethoxy)phenyl)amino)-[1,2,5]oxadiazolo[3,4-b]pyrazin-5-ol] the value was at least 5.30; for `Cc1ccc(CNc2nc3nonc3nc2O)cc1` [1-78, 6-((4-methylbenzyl)amino)-[1,2,5]oxadiazolo[3,4-b]pyrazin-5-ol], under 4.70; for `Oc1nc2nonc2nc1Nc1ccc(OC(F)(F)F)c(-c2ccc(C(F)(F)F)nc2)c1` [1-117, 6-((4-(trifluoromethoxy)-3-(6-(trifluoromethyl)pyridin-3-yl)phenyl)amino)-[1,2,5]oxadiazolo[3,4-b]pyrazin-5-ol], 4.70 to 5.30.
For the molecule `Oc1nc2nonc2cc1Nc1cccc(C(F)(F)F)c1F` [1-232, 6-((2-fluoro-3-(trifluoromethyl)phenyl)amino)-[1,2,5]oxadiazolo[3,4-b]pyridin-5-ol], the pEC50 is under 4.70.
The value for `Oc1nc2nonc2nc1Nc1ccc(S(F)(F)(F)(F)F)cc1` [1-30, 6-((4-(Pentafluoro-16-sulfaneyl)phenyl)amino)-[1,2,5]oxadiazolo[3,4-b]pyrazin-5-ol] was at least 5.30.

The record behind these values is US12655156B2, “Oxadiazolopyrazines and oxadiazolopyridines useful as mitochondrial uncouplers” (Virginia Tech Intellectual Properties, Inc., priority 2018, dated 2026).
